# Reference: patent publication US20170000377A1, “SYSTEM AND METHOD FOR IMAGING FREE RADICALS” (THE GENERAL HOSPITAL CORPORATION, priority 2014, published 2017)
# Experiment: OMRI of rat after MCAO and reperfusion with injected TEMPOL
# Set-up: species or system Wistar rat
# Conditions: following ischemia/reperfusion in vivo, imaged with OMRI
# Description: A 3D OMRI process can be performed using a variation of a balanced steady state free precession (b-SSFP) pulse sequence, for example, such as described in Sarracanie M et al. MRM 2013 DOI: 10.1002/mrm.24705. To achieve sensitivity of b-SSFP-based OMRI to free radical concentration, an NMR/ESR coil setup can be used. For one in vivo experiment, a single loop ESR coil 400 was arranged inside a solenoid NMR coil 402, as illustrate din FIG. 4. Under anesthesia, MCAO occlusion was performed in a 3 month old Wistar rat by insertion of filament via external carotid artery. Following 75 min MCAO and 60 min reperfusion, 3.6 μl/gbw of 300 μM TEMPOL was injected into the carotid artery after which the animal was sacrificed and OMRI imaging begun.
# The OMRI enhancement image may be computed from a ratio of OMRI to MRI magnitude. […] The phase of the OMRI image in FIG. 6 provides sensitive contrast even in cases where the radical concentration is very low and the Overhauser enhancement may be small.
structure (smiles),measurement,value
"CC1(C)CC(O)CC(C)(C)N1[O] [TEMPOL, 4-hydroxy-2,2,6,6-tetramethylpiperidin-1-oxyl]",crossing the BBB,crossing the BBB
